This is an account of results in PMC9194936, “Preclinical Activity and Pharmacokinetic/Pharmacodynamic Relationship for a Series of Novel Benzenesulfonamide Perforin Inhibitors” (ACS Pharmacology & Translational Science, 2022).

Like-named read-outs stand apart in the source and are kept apart here.

Data set [1] relates to perforin-dependent cytotoxicity of KHYG-1 NK cells on K562 target cells. Briefly: KHYG-1 cytotoxicity assay (51Cr-labeled K562 target cells). Type of data set: cell-based. To be noted: Homo sapiens. As for the experimental part:
(Table 1). […] An IC90 was used rather than an IC50 as we anticipated that elevated suppression of perforin activity is likely required to preserve the transplanted bone marrow stem cells in vivo.
The inhibition of the cytotoxic activity of KHYG-1 NK cells on K562 target cells was determined as described previously.[14] Briefly, compounds were added to KHYG-1 cells at 6–7 concentrations ranging from 20 μM to 312.5 nM in 2-fold dilutions in RPMI medium (Thermo Fisher Scientific, Waltham, MA) supplemented with 0.1% bovine serum albumin (BSA; Sigma-Aldrich, St. Louis, MO) for 20 min. ^51Cr-labeled K562 leukemia target cells were added to KHYG-1 cells at an effector/target ratio of 2:1 and incubated at 37 °C for 4 h. ^51Cr release was assayed using a Harvesting Press (Skatron Instruments, Lier, Norway), and radioactivity was estimated on a Wallac Wizard 1470 Automatic γ counter (Turku, Finland). The IC90 values were calculated by fitting a four-parameter logistic sigmoidal dose–response curve to the data using Prism version 8 (GraphPad, San Diego, CA). Each IC90 value represents the mean of at least three independent experiments, where six to seven concentrations were tested in triplicate for each compound.

Data set [2] in a line: Mouse plasma pharmacokinetics. The data set is classed as in vivo. The following applies: for AUC(0-t): read-out: AUC0–24. As for the experimental part:
Male C57BL/6 mice (18–25 g) were supplied and housed under controlled temperature and humidity at the Vernon Jansen Unit of the University of Auckland. The mice had access to a pelleted diet and water ad libitum. All animal experimentation followed protocols approved by the University of Auckland Animal Ethics Committee (approval #001781). Dosing solutions were prepared in 20% hydroxypropyl-β-cyclodextrin (Sigma-Aldrich). The mice received one to three doses by intraperitoneal route and were euthanised at predetermined time points (n = 3 mice per time point at 0.083, 0.25, 0.5, 1, 2, 4, 6, and 24 h for 10 mg/kg 1 and 7; 0.5, 1, 2, 6, and 24 h for 80 and 160 mg/kg 1; and 1, 6, and 24 h for 120 mg/kg 1). Blood samples (∼300 μL) were obtained through cardiac bleed and collected in ice-cold K2-EDTA tubes (BD, Franklin Lakes, NJ). Plasma was separated by centrifugation at 6500 rpm for 5 min and stored at −80 °C. On the day of analysis, plasma samples were thawed on ice and the analytes were extracted by mixing 10 μL of aliquots with four volumes of ice-cold acetonitrile/methanol (1:1 v/v) containing internal standard. The samples were kept on ice for 10 min to ensure complete protein precipitation, vortexed for 2 min, and centrifuged at 13 000 rpm for 5 min at room temperature. The clear supernatant was then diluted (1:1 v/v) with 40 μL of 0.01% formic acid in Milli-Q water prior to analysis by LC-MS/MS.
Compound concentration in biological matrices was measured by LC-MS/MS using a 6410b triple-quadrupole mass spectrometer (Agilent, Santa Clara) equipped with a multimode ionization source. The optimized mass detector conditions, namely, ionization polarity, precursor product ions, fragmentor voltage, and collision energy, were manually determined by infusing a 5 μM solution of the pure compound into the ion source. Chromatographic separation was achieved using a Zorbax SB-C18, 50 × 2.1 mm^2, 5 μm column (Agilent), and an Agilent 1100 series HPLC system. The mobile phase used was (A) 0.01% formic acid in Milli-Q water and (B) 80% acetonitrile containing 0.01% formic acid in ultrapure water at a flow rate of 0.6 mL/min. A gradient elution was used over 5 min, and the flow rate was maintained at 0.6 mL/min throughout the gradient. The column oven temperature and the autosampler temperature were set to 35 and 4 °C, respectively. […] The instrument multimode source parameters were set as follows: gas temperature, 325 °C; vaporizer, 250 °C; gas flow, 5 L/min; and nebulizer, 45 psi. The ion spray voltage was set at 3000 V. Detection of the compounds was carried out in multiple reaction monitoring mode by monitoring the m/z transitions of precursor to selective product ion. For each compound, fragmentor voltage and collision energy were optimized to achieve maximum abundance. Quadrupoles Q1 and Q3 were set to unit resolution.
Test samples were diluted up to 100-fold in blank plasma as necessary and quantitated against a calibration curve of known analyte concentrations ranging from 3 nM to 30 μM in an appropriate matrix and quality controls at 0.03, 0.3, 3, and 30 μM. Pharmacokinetic parameters were evaluated using noncompartmental analysis and pharmacokinetic simulations using one-compartment analysis on Phoenix WinNonlin version 6.2 (Certara, Princeton, NJ). Multiple-dose simulations were generated from parameters derived from single-dose simulations.

The nature of data set [3]: Splenocyte cellularity and tolerability in the bone marrow transfer assay. To be noted: all dose levels (100, 75 and 50% of MTD), qd x 4. The data set is classed as in vivo. The procedure: For the determination of splenic cell counts, mouse spleens were harvested and the cells dispersed in media by gentle teasing and then centrifuged at 500g. Cell pellets were resuspended in media and total spleen cell counts were performed manually using a standard hemocytometer and light microscopy. […] Peripheral blood cell counts and spleen white blood cell counts were determined on a Beckman Coulter Ac.T diff hematology analyzer.

Where [4] appears, read: concentration inhibiting 90% of perforin-dependent cytotoxicity, K562 targets, effector/target 2:1, 4 h, RPMI 0.1% BSA, read-out: KHYG-1 IC90.
[5] abbreviates: male, mouse, ip, 80 mg/kg single i.p. dose, C57BL/6 mice, plasma.
[6] abbreviates: male, mouse, ip, 120 mg/kg single i.p. dose, C57BL/6 mice, plasma.
Where [7] appears, read: male, mouse, ip, 160 mg/kg single i.p. dose, C57BL/6 mice, plasma.
Where [8] appears, read: male, C57BL/6, ip, mouse plasma, 10 mg/kg intraperitoneal.

Turning to `CN1Cc2cc(-c3ccc(-c4cncc(NS(=O)(=O)c5ccccc5[N+](=O)[O-])c4)s3)ccc2C1=O` [Compound 1, N-{5-[5-(2-methyl-1-oxo-2,3-dihydro-1H-isoindol-5-yl)-2-thienyl]-3-pyridinyl}-2-nitrobenzenesulfonamide], the concentration for an effect of 90% (IC90) in data set [1] (KHYG-1, estimated from IC90 5.37 μM and media free fraction 0.144, read-out: unbound in vitro IC90 in KHYG-1 cells) was 0.77 µM; in data set [1] (setting [4]) it was 5.37 ± 1.1 µM. Further, the maximum concentration (Cmax) in data set [2] (10 mg/kg single i.p. dose, C57BL/6 mice, plasma) was 105 µM; in data set [2] (setting [5]), 782 µM; in data set [2] (setting [6]), 1030 µM; in data set [2] (setting [7]) it was 1190 µM. The half-life in data set [2] (male, C57BL/6, mouse, plasma, intraperitoneal, across the dose levels 160, 120, 80 and 10 mg/kg, read-out: elimination half-life) was 2.4 to 3.4 h; in data set [2] (male, mouse, ip, 10 mg/kg single i.p. dose, C57BL/6 mice, plasma, read-out: T1/2 (converted)) it was 2.38 h; in data set [2] (male, mouse, ip, 80 mg/kg single i.p. dose, C57BL/6 mice, plasma, read-out: T1/2 (converted)), 2.85 h; in data set [2] (male, mouse, ip, 120 mg/kg single i.p. dose, C57BL/6 mice, plasma, read-out: T1/2 (converted)), 2.85 h; in data set [2] (male, mouse, ip, 160 mg/kg single i.p. dose, C57BL/6 mice, plasma, read-out: T1/2 (converted)), 3.36 h. For the same compound, the AUC(0-t) was found to be 413 µM·h in data set [2] (male, mouse, ip, 10 mg/kg single i.p. dose, C57BL/6 mice, plasma); 5440 µM·h in data set [2] (setting [5]); 7320 µM·h in data set [2] (setting [6]); 8940 µM·h in data set [2] (setting [7]). Moreover, the “reductions in splenocyte number” value in data set [3] is recorded as “only minor reductions”. Moreover, the tolerability entry in data set [3] is given as “well tolerated”.

On to `O=C1NCc2ccc(-c3ccc(-c4cncc(NS(=O)(=O)c5ccc(F)cc5F)c4)s3)cc21` [Compound 7, 2,4-difluoro-N-{5-[5-(3-oxo-2,3-dihydro-1H-isoindol-5-yl)-2-thienyl]-3-pyridinyl}benzenesulfonamide], for which the IC90 in data set [1] (setting [4]) is 28.9 ± 6.7 µM. Further, in data set [2] (setting [8]), the area under the curve (AUC) stood at 1220 µM·h and the concentration peaked (Cmax) at 235 µM. The half-life in data set [2] (male, C57BL/6, ip, mouse plasma, 10 mg/kg intraperitoneal, read-out: T1/2 (converted)) is 4.1 h.

One may read the IC90 as the point of the concentration-response curve where the effect stands at 90%. What is called Cmax is the peak of the concentration-time curve. By AUC is commonly meant concentration integrated over time.
